This note sets out measurements from patent US20240376094A2, “SELECTIVE BCL-XL PROTAC COMPOUNDS AND METHODS OF USE” (Les Laboratoires Servier, priority 2021, published 2024).

Assay type in all cases: cell-based
In one assay the test system is MOLT-4 cells. As to the kind of experiment: MOLT-4 cell viability, MTT assay. The settings on record: Homo sapiens, MOLT-4, 48 h. Summed up: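 MOLT-4 cells in RPMI 1640 with 10% FBS were exposed to compounds for 48 h at 9 concentrations (3.16-fold dilutions, triplicates). After 4 h with MTT and overnight SDS/HCl solubilisation, absorbance was read at 540 nm. IC50 came from four-parameter fits versus control, as the mean of ≥2 independent experiments.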

For a further assay, the target named is T1, Bcl-xL (Homo sapiens, UniProt Q07817).
T1 construct: Measured levels of Bcl-xL protein of HCT116 cells treated with the tested compounds; host or cells: HCT116
As to the kind of experiment: HCT116 Bcl-xL degradation, capillary-based immunoassay (WES). The settings on record: for DC50: HCT116, 24 h, 9-point serial dilution; for remaining activity at 0.01 µM / remaining activity at 0.1 µM: HCT-116, 24 h, % of untreated cells; for remaining activity at 0.01 µM: HCT116, 10 nM; for remaining activity at 0.1 µM: HCT116, 100 nM. Summed up:
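Bcl-xL protein level by capillary WES immunoassay in HCT116 lysates, as % of untreated after cofilin normalization. Compound exposure was 24 h at 10 and 100 nM and/or a 9-point series, in quadruplicate. Four-parameter fitting gave the DC50.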

For assay [1], the system named is EBC-1 lung cancer cell line. As to the kind of experiment: EBC-1 cell proliferation, CellTiter-Glo assay. The settings on record: Homo sapiens, 120 h; Ebc-1 cell viability, CTG assay, 5 days of treatment; read-out: CTG 5 day Ebc1 GI50. In short, it runs like this: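 CellTiter-Glo read-out after 5-day compound treatment, normalised to untreated cells, with GI50 derived by four-parameter logistic regression. Ten concentrations spanning 0.508 nM–10 μM were added to 1000 EBC-1 cells per well the day after seeding. Assays required at least one cell doubling versus Day 0.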

The next assay has as its target T2, HiBiT-tagged BCL-xL (Homo sapiens, UniProt Q07817).
T2 construct: expressed in transfected cells; host or cells: NCI-H1650 (ATCC No. CRL-5883), engineered HiBiT cell line
As to the kind of experiment: NCI-H1650 BCL-xL protein levels, Nano-Glo HiBiT Lytic Detection. The settings on record: NCI-H1650 expressing HiBiT-tagged BCL-xL, overnight incubation, read-out: Bcl-xl HIBIT NCIH1650 DC50. Summed up: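 HiBiT luminescence after cell lysis with LgBiT/furimazine reagent reported BCL-xL levels, expressed relative to untreated wells and fitted with a four-parameter logistic equation. Engineered NCI-H1650 cells were exposed overnight at 37° C to compound at final 0.508 nM-10 μM (10 points, triplicate plates).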
A general note: HiBiT is a short tag that completes a luciferase, so light tracks the accessible tagged protein.

T2 sequence (Q07817 whole entry): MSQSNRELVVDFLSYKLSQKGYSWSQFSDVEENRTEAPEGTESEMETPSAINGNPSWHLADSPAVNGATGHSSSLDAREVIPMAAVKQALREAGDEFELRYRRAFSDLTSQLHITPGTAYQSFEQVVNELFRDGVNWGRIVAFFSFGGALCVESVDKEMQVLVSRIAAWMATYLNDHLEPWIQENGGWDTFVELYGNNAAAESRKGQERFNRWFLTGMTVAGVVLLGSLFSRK
T1 sequence (Q07817 whole entry): as above

As a reminder, the IC50 is the midpoint of a concentration-inhibition curve. A higher IC50 goes with lower potency. One may read the GI50 as the concentration giving 50% growth inhibition. In the assay on MOLT-4 cells, `Cc1ncsc1-c1ccc(CNC(=O)[C@@H]2C[C@@H](O)CN2C(=O)[C@@H](NC(=O)C2(F)CC2)C(C)(C)C)c(OCCCCCCN(C)CCOC23CC4(C)CC(C)(CC(Cn5ncc(-c6ccc(N7CCCc8c7nnc(Nc7nc9ccccc9s7)c8C)nc6C(=O)O)c5C)(C4)C2)C3)c1` [Example 137, 6-[3-(1,3-benzothiazol-2-ylamino)-4-methyl-6,7-dihydro-5H-pyrido[2,3-c]pyridazin-8-yl]-3-[1-[[3-[2-[6-[2-[[[(2S,4R)-1-[(2S)-2-[(1-fluorocyclopropanecarbonyl)amino]-3,3-dimethyl-butanoyl]-4-hydroxy-pyrrolidine-2-carbonyl]amino]methyl]-5-(4-methylthiazol-5-yl)phenoxy]hexyl-methyl-amino]ethoxy]-5,7-dimethyl-1-adamantyl]methyl]-5-methyl-pyrazol-4-yl]pyridine-2-carboxylic acid] registered an IC50 of 16.2 nM. Also, the DC50 on Bcl-xL is over 316 nM; on HiBiT-tagged BCL-xL it was over 1670 nM. In assay [1], the GI50 turned out to be 4 nM.
The like results for `Cc1ncsc1-c1ccc(CNC(=O)[C@@H]2C[C@@H](O)CN2C(=O)[C@@H](NC(=O)C2(F)CC2)C(C)(C)C)c(OCCCCCCCCCCCCN(C)CCOC23CC4(C)CC(C)(CC(Cn5ncc(-c6ccc(N7CCCc8c7nnc(Nc7nc9ccccc9s7)c8C)nc6C(=O)O)c5C)(C4)C2)C3)c1` [Example 139, 6-[3-(1,3-benzothiazol-2-ylamino)-4-methyl-6,7-dihydro-5H-pyrido[2,3-c]pyridazin-8-yl]-3-[1-[[3-[2-[12-[2-[[[(2S,4R)-1-[(2S)-2-[(1-fluorocyclopropanecarbonyl)amino]-3,3-dimethyl-butanoyl]-4-hydroxy-pyrrolidine-2-carbonyl]amino]methyl]-5-(4-methylthiazol-5-yl)phenoxy]dodecyl-methyl-amino]ethoxy]-5,7-dimethyl-1-adamantyl]methyl]-5-methyl-pyrazol-4-yl]pyridine-2-carboxylic acid] were, in that order, 3.52 nM, 0.397 nM, 3 nM and 7 nM.
As a reminder, the remaining activity is what remains of the control signal, in per cent. A high value points to much activity left. In the assay with MOLT-4 cells, `Cc1ncsc1-c1ccc([C@H](C)NC(=O)[C@@H]2C[C@@H](O)CN2C(=O)[C@@H](NC(=O)CCCCCCCCCCCCCN(C)CCOC23CC4(C)CC(C)(CC(Cn5ncc(-c6ccc(N7CCCc8c7nnc(Nc7nc9ccccc9s7)c8C)nc6C(=O)O)c5C)(C4)C2)C3)C(C)(C)C)cc1` [Example 4, 6-[3-(1,3-benzothiazol-2-ylamino)-4-methyl-6,7-dihydro-5H-pyrido[2,3-c]pyridazin-8-yl]-3-[1-[[3-[2-[[14-[[(1S)-1-[(2S,4R)-4-hydroxy-2-[[(1S)-1-[4-(4-methylthiazol-5-yl)phenyl]ethyl]carbamoyl]pyrrolidine-1-carbonyl]-2,2-dimethyl-propyl]amino]-14-oxo-tetradecyl]-methyl-amino]ethoxy]-5,7-dimethyl-1-adamantyl]methyl]-5-methyl-pyrazol-4-yl]pyridine-2-carboxylic acid] returned an IC50 of 0.85 nM. At Bcl-xL, this compound registered a DC50 of 0.279 nM, a remaining activity at 0.01 µM of 33% and a remaining activity at 0.1 µM of 14%. The GI50 in assay [1] was determined as 1 nM. Also, on HiBiT-tagged BCL-xL, the DC50 is 0.4 nM.
Regarding `Cc1ncsc1-c1ccc([C@H](C)NC(=O)[C@@H]2C[C@@H](O)CN2C(=O)[C@@H](NC(=O)CCCCCCCCCCCCN(C)CCOC23CC4(C)CC(C)(CC(Cn5ncc(-c6ccc(N7CCCc8c7nnc(Nc7nc9ccccc9s7)c8C)nc6C(=O)O)c5C)(C4)C2)C3)C(C)(C)C)cc1` [Example 136, 6-[3-(1,3-benzothiazol-2-ylamino)-4-methyl-6,7-dihydro-5H-pyrido[2,3-c]pyridazin-8-yl]-3-[1-[[3-[2-[[13-[[(1S)-1-[(2S,4R)-4-hydroxy-2-[[(1S)-1-[4-(4-methylthiazol-5-yl)phenyl]ethyl]carbamoyl]pyrrolidine-1-carbonyl]-2,2-dimethyl-propyl]amino]-13-oxo-tridecyl]-methyl-amino]ethoxy]-5,7-dimethyl-1-adamantyl]methyl]-5-methyl-pyrazol-4-yl]pyridine-2-carboxylic acid], in the assay on MOLT-4 cells, the midpoint of inhibition, the IC50, lay at 1.45 nM. Also, the DC50 at Bcl-xL was found to be 2.71 nM; at HiBiT-tagged BCL-xL it was 1 nM. In addition, in assay [1], the GI50 was found to be 1 nM.
For `Cc1ncsc1-c1ccc([C@H](C)NC(=O)[C@@H]2C[C@@H](O)CN2C(=O)[C@@H](NC(=O)CCCCCCCCCCN(C)CCOC23CC4(C)CC(C)(CC(Cn5ncc(-c6ccc(N7CCCc8c7nnc(Nc7nc9ccccc9s7)c8C)nc6C(=O)O)c5C)(C4)C2)C3)C(C)(C)C)cc1` [Example 135, 6-[3-(1,3-benzothiazol-2-ylamino)-4-methyl-6,7-dihydro-5H-pyrido[2,3-c]pyridazin-8-yl]-3-[1-[[3-[2-[[11-[[(1S)-1-[(2S,4R)-4-hydroxy-2-[[(1S)-1-[4-(4-methylthiazol-5-yl)phenyl]ethyl]carbamoyl]pyrrolidine-1-carbonyl]-2,2-dimethyl-propyl]amino]-11-oxo-undecyl]-methyl-amino]ethoxy]-5,7-dimethyl-1-adamantyl]methyl]-5-methyl-pyrazol-4-yl]pyridine-2-carboxylic acid], the IC50 in the assay with MOLT-4 cells is 3.51 nM. The DC50 on Bcl-xL came to 0.978 nM; at HiBiT-tagged BCL-xL it was 1 nM. For the same compound, the 50% growth inhibitory concentration (GI50) in assay [1] was 4 nM.
As for `Cc1c(Nc2nc3ccccc3s2)nnc2c1CCCN2c1ccc(-c2cnn(CC34CC5(C)CC(C)(C3)CC(OCCN(C)CCCCCCCCCCOc3ccc6c(c3)C(=O)N(C3CCC(=O)NC3=O)C6=O)(C5)C4)c2C)c(C(=O)O)n1` (stereo not shown) [Example 60, 6-[3-(1,3-benzothiazol-2-ylamino)-4-methyl-6,7-dihydro-5H-pyrido[2,3-c]pyridazin-8-yl]-3-[1-[[3-[2-[10-[2-(2,6-dioxo-3-piperidyl)-1,3-dioxo-isoindolin-5-yl]oxydecyl-methyl-amino]ethoxy]-5,7-dimethyl-1-adamantyl]methyl]-5-methyl-pyrazol-4-yl]pyridine-2-carboxylic acid], in the assay on MOLT-4 cells, the IC50 is 0.717 nM. Besides, at Bcl-xL, the DC50 is 0.11 nM, the remaining activity at 0.01 µM turned out to be 19% and the remaining activity at 0.1 µM amounted to 23%. Also, the GI50 in assay [1] was 1 nM. In addition, the DC50 at HiBiT-tagged BCL-xL was over 1670 nM.
